In US20260151406A1, “COMPOSITION FOR PREVENTING OR TREATING PERIODONTITIS COMPRISING CANNABIDIOL AND TAURINE” (MBP CO., LTD., priority 2022, published 2026):

What was measured:
Assay type in all cases: cell-based
Raw264.7 cells = experiment: Evaluation of cytotoxicity (intracellular toxicity); conditions: CBD alone (FIG. 1)
Procedure: For CBD and taurine, intracellular toxicity evaluation was performed on osteoclasts (Raw264.7 cells), which are inflammatory cells, and the results are shown in FIG. 1. […] The appropriate concentrations of CBD (10 uM) and Taurine (0.5 mM) were determined, and intracellular toxicity evaluation according to subsequent combined treatment was performed.

[1] = test system: bone loss by RANKL in macrophages; experiment: Inhibition of bone loss by RANKL in macrophages (pit formation area analysis); conditions: pit formation area (FIG. 4)
Procedure: (§1) To confirm the inhibitory effect of CBD and taurine on bone loss caused by periodontitis, the degree of TRAP formation and bone loss by RANKL (receptor activator of nuclear factor-KB ligand) was analyzed through pit formation area analysis.
To further confirm the bone loss inhibition efficacy of CBD and taurine, the degree of inhibition of bone loss by RANKL in macrophages was analyzed.

[2] = test system: TRAP-positive cell formation in macrophages; experiment: Inhibition of TRAP-positive cell formation by RANKL during osteoclast differentiation; conditions: osteoclast differentiation (FIG. 3)
Procedure: as §1
As a result of analyzing the degree of inhibition of TRAP-positive cell formation by RANKL during osteoclast differentiation, it was confirmed that the inhibition efficacy of TRAP-positive cell formation was very low when CBD or taurine was used alone, but the inhibition efficacy of TRAP-positive cell formation was very high when CBD and taurine were used in combination (FIG. 3).

Compound | concentration up to which there was no intracellular toxicity (Raw264.7 cells) [µM] | bone loss inhibition efficacy [1] | inhibition efficacy of TRAP-positive cell formation [2]
C=C(C)[C@@H]1CCC(C)=C[C@H]1c1c(O)cc(CCCCC)cc1O [CBD, Cannabidiol] | ≤ 12 | almost none or very low | very low
NCCS(=O)(=O)O [taurine] |  | almost none or very low | very low
